14 molecules from US20250230138A1, “COMPOUNDS HAVING A T-STRUCTURE FORMED BY AT LEAST FOUR CYCLES FOR USE IN THE TREATMENT OF CANCER AND OTHER INDICATIONS” (TheRas, Inc., priority 2022, published 2025) can be followed below.

Each structure is given as a SMILES string. Like-named read-outs stand apart in the source and are kept apart here.

The target in test [1] is Cys242 in human PIK3CA (157-299) (Homo sapiens (Human), UniProt P42336). As to the kind of experiment: Covalent modification assay using MALDI-TOF MS. To be noted: 4 h reaction time point. It is filed as biochemical. Put shortly: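 Covalent adduct formation was read by linear-mode MALDI-TOF with sinapinic acid matrix, reported as modified-protein peak height divided by total protein peak heights. Reactions held PIK3CA (157-299) at 1 or 3.33 μM in HEPES/NaCl/MgCl2 buffer, pH 7.3, sampled after 15 min to 4 h at room temperature.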
Cys242 in human PIK3CA (157-299), sequence (P42336 157-299): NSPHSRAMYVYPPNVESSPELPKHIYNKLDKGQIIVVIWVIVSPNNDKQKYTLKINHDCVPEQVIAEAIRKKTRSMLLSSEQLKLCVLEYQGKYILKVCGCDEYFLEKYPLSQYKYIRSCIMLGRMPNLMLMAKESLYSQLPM

The next test relates to pAKT in BT474 cells. Put plainly: Cell-based pAKT HTRF assay in BT474 cells. The following applies: BT474 cells, 4 hr incubation, read-out: pAKT inhibition IC50 in BT474 cells. The gist of the method: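 pAKT was measured by HTRF after a 4 hr compound exposure in BT474 cells (DMEM, 10% FBS, 0.25% DMSO), using 9 concentrations from 3 μM in 3-fold steps. Cell lysates were incubated with the Eu cryptate/d2 antibody pair at room temperature for 4 to 24 h. The plate was then read at 320 nm excitation and 615 nm emission.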

Where [2] appears, read: 1 μM protein target, 1:5 protein to compound ratio (compounds 853-1279).
Where [3] appears, read: 3.33 μM protein target, 1:7.5 protein to compound ratio (compounds 1-852).

Consider `C=CC(=O)N1CCn2nc(-c3nc(N4CC5(CC(C(=O)NC)C5)C4)c4ccsc4c3-c3c(F)cc(F)cc3OCCOC)cc2[C@H]1C` [Compound 1012, 2-((S)-6-((R)-5-acryloyl-4-methyl-4,5,6,7-tetrahydropyrazolo[1,5-a]pyrazin-2-yl)-7-(2,4-difluoro-6-(2-methoxyethoxy)phenyl)thieno[3,2-c]pyridin-4-yl)-N-methyl-2-azaspiro[3.3]heptane-6-carboxamide], for which, in test [1] (setting [2]), the “% of modification” value is given as “A (percent of modification of PIK3CA protein ≥75%)”. Also, the IC50 in the test on pAKT in BT474 cells (Homo sapiens, BT-474, Compounds 1000-1279) is under 100 nM.
As to `C=CC(=O)N1CCn2nc(-c3nc(-c4ccc5nn(C)cc5c4)c4ccsc4c3-c3c(F)cc(F)cc3OCCO)cc2[C@@H]1C` [Compound 644], the “% of modification” value in test [1] (setting [3]) is “A (percent of modification of PIK3CA protein ≥75%)”. Besides, in the test on pAKT in BT474 cells (Compounds 10-999), the IC50 is under 100 nM.
Regarding `C=CC(=O)N1CCn2nc(-c3nc(-c4ccc5oc(C)nc5c4)c4ccsc4c3-c3c(F)cc(F)cc3OCCO)cc2[C@@H]1C` [Compound 654], the “% of modification” value in test [1] (setting [3]) is given as “A (percent of modification of PIK3CA protein ≥75%)”. For the same molecule, in the test with pAKT in BT474 cells (Compounds 10-999), the IC50 is under 100 nM.
As for `COCCOc1cc(F)cc(F)c1-c1c(-c2cc3n(n2)CCN(C(=O)C(F)Cl)[C@@H]3C)nc(-c2ccc3c(cnn3C)c2)c2ccsc12` (stereo partly shown) [Compound 1228], in test [1] (setting [2]), the “% of modification” value is recorded as “D (percent of modification <25%)”. Besides, in the test on pAKT in BT474 cells (Compounds 1000-1279), the half-maximal inhibitory concentration (IC50) was over 1000 nM.
Taken in the same sequence, the figures for `C#CC(=O)N1CCn2nc(-c3nc(-c4ccc5c(cnn5C)c4)c4ccsc4c3-c3c(F)cc(F)cc3OCCOC)cc2[C@H]1C` [Compound 1229] were “A (percent of modification of PIK3CA protein ≥75%)” and over 1000 nM.
Taken in the same sequence, the figures for `C=CC(=O)N1CCn2nc(-c3nc(-c4cnc5c(c4)CN(C)CC5)c4c(c3-c3c(F)cc(F)cc3OCCOC)CCC4)cc2C1C` (stereo not shown) [Compound 1243] were “A (percent of modification of PIK3CA protein ≥75%)” and under 100 nM.
`C=CC(=O)N1CCn2nc(-c3nc(-c4cnn(C)c4)c4ccsc4c3-c3c(F)cc(F)cc3OC(C)C)cc2C1` [Compound 289]: the “% of modification” value in test [1] (setting [3]) is “A (percent of modification of PIK3CA protein ≥75%)”. Further, the IC50 with pAKT in BT474 cells (Compounds 10-999) is under 100 nM.
The corresponding values for `C=CC(=O)N1CCn2nc(-c3nc(-c4ccc5c(cnn5C)c4)c4ccsc4c3-c3c(F)cc(F)cc3OC[C@@H](C)O)cc2[C@@H]1C` [Compound 671] are “A (percent of modification of PIK3CA protein ≥75%)” and under 100 nM.
`C=CC(=O)N1CCn2nc(-c3nc(-c4ccc5c(c4)C(=O)N(C)CC5)c4ccsc4c3-c3c(F)cc(F)cc3OCCOC)cc2[C@H]1C` [Compound 953]: the “% of modification” value in test [1] (setting [2]) is “A (percent of modification of PIK3CA protein ≥75%)”. In addition, the IC50 with pAKT in BT474 cells (Compounds 10-999) is under 100 nM.
Regarding `C=CC(=O)N1CCc2ncc(-c3nc(-c4cncc(Cl)c4)c4ccsc4c3-c3c(F)cc(F)cc3OCCOC)cc2C1` [Compound 377], the “% of modification” value in test [1] (setting [3]) is “A (percent of modification of PIK3CA protein ≥75%)”. Also, the IC50 in the test with pAKT in BT474 cells (Compounds 10-999) was under 100 nM.
In the case of `C=CC(=O)N1CCn2nc(-c3nc(-c4ccc5nn(C)cc5c4)c4ccsc4c3-c3c(F)cc(F)cc3OC[C@@H](C)O)cc2[C@@H]1C` [Compound 646], the “% of modification” value in test [1] (setting [3]) was “A (percent of modification of PIK3CA protein ≥75%)”. Further, the IC50 in the test with pAKT in BT474 cells (Compounds 10-999) is under 100 nM.
For the molecule `C=CC(=O)N1CCc2cc(-c3nc(-c4cnn(C)c4)c4ccsc4c3-c3c(F)cc(F)cc3OC(C)C)nn2CC1` [Compound 569], the “% of modification” value in test [1] (setting [3]) is on record as “A (percent of modification of PIK3CA protein ≥75%)”. Further, the half-maximal inhibitory concentration (IC50) with pAKT in BT474 cells (Compounds 10-999) is under 100 nM.
`C=CC(=O)N1CC(n2cc(-c3nc(-c4ccnc(N)c4)c4ccsc4c3-c3ccc(F)cc3OCCOC)cn2)C1` [Compound 234]: the “% of modification” value in test [1] (setting [3]) is “A (percent of modification of PIK3CA protein ≥75%)”. Further, in the test on pAKT in BT474 cells (Compounds 10-999), the 50% inhibitory concentration (IC50) was under 100 nM.
For the molecule `C=CC(=O)N1CCC(n2cc(-c3nc(-c4cnn5c4NCCC5)c4ccsc4c3-c3ccc(F)cc3OCCOC)cn2)CC1` [Compound 68], in test [1] (setting [3]), the “% of modification” value was “A (percent of modification of PIK3CA protein ≥75%)”. For the same molecule, the IC50 in the test with pAKT in BT474 cells (Compounds 10-999) lay within 100 to 1000 nM.
